We go through five compounds from patent publication US3986930A, “Lipase activity determining method and reagent” (Dainippon Pharmaceutical Co., Ltd., priority 1974, dated 1976).

The structures appear in SMILES notation. Where only a bound is given, the exact number is not on record here.

Series [1] has as its target T1, Purified hog pancreatic lipase (type IV, Sigma) (Sus scrofa, UniProt P00591).
T1 construct: purchased Sigma Chemical Co. type IV; host or cells: hog pancreas
T1 sequence (P00591 1-450): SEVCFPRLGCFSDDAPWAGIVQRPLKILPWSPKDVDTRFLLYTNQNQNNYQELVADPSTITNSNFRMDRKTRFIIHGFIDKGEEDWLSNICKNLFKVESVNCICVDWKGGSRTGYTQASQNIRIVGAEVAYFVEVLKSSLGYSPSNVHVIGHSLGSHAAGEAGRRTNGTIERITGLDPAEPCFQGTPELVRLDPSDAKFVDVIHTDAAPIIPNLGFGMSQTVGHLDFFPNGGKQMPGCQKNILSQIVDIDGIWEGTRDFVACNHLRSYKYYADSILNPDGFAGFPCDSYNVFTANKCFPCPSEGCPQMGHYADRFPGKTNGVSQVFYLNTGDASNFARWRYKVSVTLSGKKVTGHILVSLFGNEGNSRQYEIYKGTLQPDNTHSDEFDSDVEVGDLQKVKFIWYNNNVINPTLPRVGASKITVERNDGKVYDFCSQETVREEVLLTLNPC
As to the kind of experiment: Hydrolysis of S-acyl substrates by purified hog pancreatic lipase, DTNB colorimetry at 412 nm, no PMSF. It is filed as biochemical. As to conditions: for Relative activity (%): relative activity of BLME for lipase expressed as 100, 10 μl lipase solution. On the procedure:
The determination of lipase activity by the present invention is carried out based on the following principle. That is, a solution of the substrate [an S-acyl compound of the formula (I), (II), (III) or (IV)] in an alcohol is added to the reaction buffer solution containing the sample with lipase and a chromogenic sulfhydryl reagent which reacts with a SH-group-containing compound [hereinafter, referred to as "SH-compound" ] released from the substrate by lipase. The amount of the released SH-compound or the intensity of the colored reaction mixture is proportional to the lipase activity in the sample, and therefore, the lipase activity can be determined by subjecting the resulting colored reaction mixture to colorimetric readings. As a sulfhydryl reagent, 5,5'-dithiobis(2-nitrobenzoic acid) [hereinafter, referred to as "DTNB" ] is used. In case of the measurement of lipase activity by using the S-acyl compound (I) (X is O) and DTNB, it is assumed that the reaction will proceed as shown in the following scheme: [drawing 6]
(§1) To test tubes I and II are added (c) (1 ml) and a test sample (10 - 1,500 BALB unit of lipase or about 10 μl of human serum), and further to the test tube I is added (b) (20 μl; the concentration of PMSF: about 0.4 mM) and the mixture is allowed to stand at room temperature for 5 minutes to inactivate the existing serum caboxylesterase and/or arylesterase.
(§2) To the test tube I is further added a substrate (a) (0.1 ml). The test tubes I and II are kept for 30 minutes at 38° C, and immediately to the test tube II is added the substrate (a) (0.1 ml) and to these test tubes I and II is added acetone (d) (2 ml) to stop the reaction. After mixed well, the tubes I and II were centrifuged (700 × g, for 10 minutes) to remove insoluble serum proteins and turbidity due to serum lipids and the substrate. The optical density of the supernatant of the tube I is measured at 412 nm in a cuvette of 1 cm light path (OD412 ^1 cm ) against that of the tube II.
Purified hog pancreatic lipase (type IV, a product of Sigma Chemical Co.) is dissolved in 1 % human serum albumin solution to give a solution (10 μg/ml). The lipase activity in 10 μl of this solution (correspondingto 0.1 μ g of lipase) is determined in the same manner as described in Example 2 (substrate: BALB) in the absence of PMSF. The lipase activity measured is 800 BALB units.
One μmole of the released SH-group from the substrate gives 4.75 of OD412 ^1 cm under the conditions described in Example 11, and therefore 1 mg of the purified hog pancreatic lipase is calculated to hydrolyze the S-acyl group of the BALB to give a free SH-group at the rate of 1,670 μmoles/30 minutes.
The same lipase solution (10 μl) as prepared in Example 11 is treated in the same manner as described in Example 2 by using various S-acyl compounds as the substrate in the absence of PMSF. The relative activity of the S-acyl compounds are measured. The results are shown in Table 4, wherein the relative activity of BLME for lipase is expressed as 100.

The test system of the next series is lipase. As to the kind of experiment: Inhibition of lipase by PMSF (rate of hydrolysis of S-acyl substrate, DTNB colorimetry). It counts as biochemical. As to conditions: substrate BLME; 0 - 2.0 mM of PMSF. The method, then: as §1
(§3) To the test tube I is further added a substrate (a) (0.1 ml). The test tubes I and II are kept for 30 minutes at 38° C, and immediately to the test tube II is added the substrate (a) (0.1 ml) and to these test tubes I and II is added acetone (d) (2 ml) to stop the reaction. […] The optical density of the supernatant of the tube I is measured at 412 nm in a cuvette of 1 cm light path (OD412 ^1 cm ) against that of the tube II. […]
(§4) In the same manner as described in Example 2, lipase of 1,100 BALB unit, carboxylesterase of 450 BALB unit or arylesterase of 60 BALB unit is treated (substrate: BALB), wherein the concentration of PMSF is varied, and then the rate of hydrolysis of BALB (relative activity) is measured.
In the same manner as described in Example 3, lipase of 1,100 MPB unit, carboxylesterase of 140 MPB unit or arylesterase of 68 MPB unit is treated (substrate: MPB), wherein the concentration of PMSF is varied, and then the rate of hydrolysis of MPB (relative activity) is measured. […]

Another series deals with carboxylesterase. Put plainly: Inhibition of carboxylesterase by PMSF (rate of hydrolysis of S-acyl substrate, DTNB colorimetry). It is filed as biochemical. The method, then: as §1, §2
Besides, test tube III is treated in the same manner as test tube I except that the enzyme inhibitor (b) is omitted.
In the same manner as described in Example 2, the determination of lipase activity is carried out except that the substrate (a' ) is used instead of (a).
as §4
(§5) In the same manner as described in Example 3, lipase of 1,100 MPB unit, carboxylesterase of 140 MPB unit or arylesterase of 68 MPB unit is treated (substrate: MPB), wherein the concentration of PMSF is varied, and then the rate of hydrolysis of MPB (relative activity) is measured.
In the same manner as described in Example 9, the determination of lipase activity is carried out by using BLME as the substrate. […]

The test system of the next series is arylesterase. As to the kind of experiment: Inhibition of arylesterase by PMSF (rate of hydrolysis of S-acyl substrate, DTNB colorimetry). It counts as biochemical. On the procedure:
as §1, §3, §4, §5

Series [2] is described as follows: Storage / heat stability of reagent solutions in alcohol. It counts as physicochemical. As to conditions: heated at 120° C for 30 minutes. The text has this:
According to the present method, the measurement of lipase activity can be easily carried out by using so small amount of sample as 1/10 to 1/100 of that in the known methods described hereinbefore and within a shorter time. Moreover, the substrate becomes micellar merely by mixing and shaking with a buffer solution without addition of an emulsifier or vigorous stirring, and further, the solution of the substrate in an alcohol is stable at room temperature for more than 6 months.
The enzyme inhibitor (e.g. PMSF) is preferably preserved in the form of an alcoholic solution (e.g. ethanolic solution). PMSF in an alcohol solution is stable even if it is heated at 120° C for 30 minutes, but if the solution is mixed with the substrate (I), (II), (III) or (IV) in an alcohol, PMSF undergoes chemical reaction with the substrate to lose its action as an esterase-inhibitor, and therefore, both of the solutions must be preserved separately.

For `CCCC(=O)OC(CSC(=O)CCC)CSC(=O)CCC` [2-butyroyloxy-1,3-bisbutyroylthiopropane], the “relative activity as fraction of the relative activity of BALB” value in series [1] (absence of PMSF) is recorded as “less than 1/10”.

In the case of `CCCC(=O)OC(CSC(=O)CCC)CSC(=O)CCC` [drawing 28], the “Relative activity (%)” value in series [1] (absence of PMSF) is recorded as 35%.

For `O=S(=O)(F)Cc1ccccc1` [PMSF, phenylmethylsulfonyl fluoride], in the series on lipase, the “Inhibition of the lipase activity” value is recorded as “negligible”. For the same compound, the “50 % inhibitory concentration for carboxylesterase as fraction of that for lipase” value in the series with carboxylesterase (substrate BALB) is “about 1/100”; with carboxylesterase (substrate MPB) it was “about 1/200”. Further, in the series on carboxylesterase (substrate BLME, 0.2 mM or more of PMSF), the carboxylesterase activity inhibited was at least 90%. The “50 % inhibitory concentration for arylesterase as fraction of that for lipase” value was 1/300 in the series with arylesterase (substrate BALB) and 1/400 with arylesterase (substrate MPB). Further, the “stability of alcohol solution on heating” value in series [2] is “stable”.

Turning to `CCCCCCCCCCCC(=O)OCCSC(=O)CCC` [BLME, S-butyroyl-O-lauroylmercaptoethanol], the “Relative activity (%)” value in series [1] (absence of PMSF) turned out to be 100%.

On to `CCCC(=O)OCC(CSC(=O)CCC)SC(=O)CCC` (stereo not shown) [BALB], for which, in series [1] (0.1 μg hog pancreatic lipase, 30 minutes at 38° C, absence of PMSF), the “lipase activity measured, OD412 (I-II) x 1,000” value is 800 BALB units. Besides, the “activity for lipase (in words)” value in series [1] (absence of PMSF) is “extremely high activity”. Further, the “rate of hydrolysis of the S-acyl group to free SH-group by 1 mg of lipase” value in series [1] (per 1 mg purified hog pancreatic lipase, calculated from 4.75 OD412 per μmole SH) is 1,670 μmoles/30 minutes.
